This data set deals with crude enzymes (CEs) of Sphingopyxis sp. USTB-05. Format: in vitro ADME. The settings on record: NOD 11.6 mg/L with CEs 570 mg/L protein, 30 °C, HPLC-UV 238 nm; for fate of the biodegradation product in the presence of CEs: followed to 36 h. On the procedure: Bacterial cells of USTB-05 in the logarithmic growth phase of the third day were harvested by centrifugation at 8000 r/min for 20 min at room temperature. The bacterial pellet was subsequently washed three times with 50 mM phosphate buffer solution (PBS, pH 7.0). Afterwards, the cells were resuspended in 30 mL PBS, and then disrupted using an ultrasonic disruptor with an output power of 600 W for 15 min in an ice bath. […].
The total biodegradation reaction volume was 5 mL containing 570 mg/L, 380 mg/L, and 211 mg/L proteins in PBS in each 10 mL centrifuge tube, respectively. […]. The reaction was performed at 30 °C and 200 r/min. Samples of 500 μL for each were taken after 0, 3, 6, 12, 24, and 36 h, respectively, and then 5 μL of concentrated hydrochloric acid (36%, v/v) was added to stop the reaction. A control bottle was prepared in the same way without CEs. All samples were centrifuged at 13,000 r/min for 10 min and then the concentrations of residual NOD and its products in supernatants were analyzed using HPLC. All experiments were carried out in triplicate.
NOD and its enzymatic biodegradation products were firstly analyzed using a HPLC system (Shimadzu LC-10ATVP, Shimadzu Co., Ltd., Kyoto, Japan) with an ultraviolet (UV) Diode Array Detector at 238 nm using a Agilent TC-C18 column (4.6 mm × 250 mm) (Agilent Technologies Inc., 1200 series, Santa Clara, CA, USA). […]. The flow rate was 1 mL/min and the injection amount was 20 μL. The concentration of NOD was determined by calibration of peak area (at 238 nm) with that of the standard NOD. The biodegradation products that contained Adda were monitored by HPLC based on the assumption that their molar absorption coefficient at 238 nm is the same as NOD.

`CC=C(C(=O)N[C@@H](C(=O)O)[C@H](C)C(=O)N[C@@H](CCCNC(=N)N)C(=O)O)N(C)C(=O)CC[C@@H](NC(=O)[C@@H](C)[C@@H](N)/C=C/C(C)=C/[C@H](C)[C@H](Cc1ccccc1)OC)C(=O)O` [product A]: the “time at which the product peak appeared on HPLC during enzymatic biodegradation of NOD” value amounted to 3 h and the “fate of the biodegradation product in the presence of CEs” value is “completely converted to product B”.

On to `CO[C@@H](Cc1ccccc1)[C@@H](C)/C=C(C)/C=C/[C@H](N)[C@H](C)C(=O)O` [product B, (2S,3S,8S,9S)-3-amino-9-methoxy-2,6,8-trimethyl-10-phenyldeca-4(E),6(E)-dienoic acid], for which the “time at which the product peak appeared on HPLC during enzymatic biodegradation of NOD” value is given as 6 h and the “fate of the biodegradation product in the presence of CEs” value was “always increased over time until 36 h”.

The values are drawn from PMC4885035, “Pathway for Biodegrading Nodularin (NOD) by Sphingopyxis sp. USTB-05” (Toxins, 2016).
